The values that follow come from patent US12599606B2, “Therapies with 3rd generation EGFR tyrosine kinase inhibitors” (Janssen Biotech, Inc., priority 2019, dated 2026).

Data set [1] has as its system EGFR mutation positive (EGFRm+) advanced NSCLC. The data set can be described thus: Clinical Trial No. NCT03046992, phase I/II lazertinib monotherapy. The settings on record: for ORR, (%): T790M+ patients. It is filed as in vivo, human. The source says:
Clinical Trial No. NCT03046992 was primarily designed to evaluate the safety, tolerability, and efficacy of YH25448 in patients with EGFR mutation positive (EGFRm+) advanced NSCLC with or without asymptomatic brain metastasis who progressed following prior therapy with an EGFR TKIs agent.
Patients with advanced and metastatic NSCLC who had progressed after treatment with EGFR-TKIs with/without asymptomatic brain metastases (BM) were enrolled in an open-label, multicenter, phase I/II study with dose-escalation and expansion cohorts. Lazertinib was administered once daily at doses between 20 to 320 mg in a 21-day cycle. Patients were assessed for safety, tolerability, pharmacokinetics and efficacy. T790M status was confirmed in the dose-expansion cohorts.

Data set [2] has as its system EGFR Dell9/T790M mutant lung adenocarcinoma. The settings on record: one patient, 40 mg daily, cited from earlier work.
The test system of data set [3] is H1975 human lung xenografts. In words: H1975 human lung carcinoma xenograft model, antitumor activity.
Procedure: The animals were fed ad libitum water (reverse osmosis, 1 ppm Cl) and NIH 31 Modified and Irradiated Lab Diet® consisting of 18.0% crude protein, 5.0% crude fat, and 5.0% crude fiber. The mice were housed on irradiated Enrich-o'cobs™ Laboratory Animal Bedding in static microisolators on a 12-hour light cycle at 20-22° C. (68-72° F.) and at 40-60% humidity. All studies complied with the recommendations of the Guide for Care and Use of Laboratory Animals with respect to restraint, husbandry, surgical procedures, feed and fluid regulation, and veterinary care. […]
On the day of implant, the NCI-H1975 cells were harvested during log phase growth and resuspended in phosphate buffered saline (PBS) at a concentration of 5×10^7 cells/mL. Xenografts were initiated by subcutaneously implanting 5×10^6 NCI-H1975 cells per animal (0.1 mL suspension) into the right flank of each test animal and tumors were monitored as their volumes approached the target range of 150-200 mm^3. Fifteen days later, animals were sorted into bins by calculated tumor volumes based on vernier caliper measurements of tumor width and length to the nearest mm. […] Tumor size, in mm3, was calculated using the following formula: Tumor Volume=(w^2×l)/2 where w=width and l=length, in mm, of the tumor. […]
Data set [4] has as its system H1975-HGF xenografts. In words: H1975-HGF human lung carcinoma xenograft model, antitumor activity. Background: In xenograft studies the graft and the host belong to different species.
Procedure: (§1) Female athymic nude mice were used in the studies (n=10/group). Treatment began when SC tumors reached approximately 100 to 300 mm^3 in size. and dosing was initiated according to the treatment plan summarized in Table 2. […] The control group was dosed with vehicle orally daily for 21 days, and the isotype control antibody was dosed twice a week IP for 3 weeks. Mice were monitored for body weight and tumor volume up to Day 95, and were euthanized when individual tumor volume reached 2,000 mm^3 or at study conclusion.
Tumor volume data were graphically represented as the mean tumor volume±SEM. Tumor volume was calculated using the formula: tumor volume (mm^3)=(D×d2)/2; where ‘D’ represents the larger diameter, and ‘d’ the smaller diameter of the tumor as determined by caliper measurements.
The % TGI was defined as the difference between mean tumor burden of the treated and control group, calculated as % ΔTGI=([(TVc−TVc0)−(TVt−TVt0)]/(TVc−TVc0))×100 where ‘TVc’ is the mean tumor burden of a given control group, ‘TVc0’ is the mean initial tumor burden of a given control group, ‘TVt’ is the mean tumor burden of the treated group, and ‘TVt0’ is the mean initial tumor burden of the treated group. […]
Survival data was graphed and analyzed using GraphPad Prism 7.04 for Windowswith day 1 as the treatment start date. […]
Data set [5] is described as follows: Body weight and clinical signs of nude mice bearing H1975 xenografts. To be noted: for body weight loss compared to the control group: H1975-xenograft-bearing nude mice, Day 29, 10 mg/kg; for animals euthanized due to negative clinical signs: H1975 model, n=10/group, unclear whether due to tumor burden or treatment.
Procedure: The mice were housed on irradiated Enrich-o'cobs™ Laboratory Animal Bedding in static microisolators on a 12-hour light cycle at 20-22° C. (68-72° F.) and at 40-60% humidity.
as §1
(§2) Relative body weight of individual mice was calculated using the formula: (W/W0)×100, where ‘W’ represents body weight on a particular day, and ‘W0’ represents body weight at initiation of treatment. Body weight was graphically represented as mean % of initial body weight±SEM.
Tumor volume and body weight data were graphically represented using Prism software (GraphPad, version 7). Statistical significance was evaluated for all pairwise comparisons on the last day of the study when at least eight mice remained in each group. Differences between groups were considered significant when p≤0.05. Statistical significance of tumor volume and body weight was calculated using the Linear Mixed-Effects analysis in R software version 3.4.2 (using Janssen's internally developed Shiny application version 3.3), with treatment and time as fixed effects and animal as random effect. Logarithmic transformation (base 10) was performed if individual longitudinal response trajectories were not linear. The information derived from this model was used to make pairwise treatment comparisons to the control group or between all the treatment groups.
A short description of data set [6]: Body weight and clinical signs of nude mice bearing H1975-HGF xenografts. The class given is in vivo. The settings on record: H1975-HGF model, n=10/group; unclear whether due to tumor burden or treatment.
Procedure: as §1, §2
Tumor volume and body weight data were graphically represented using Prism software (GraphPad, version 7). Statistical significance was evaluated for all pairwise comparisons on the last day of the study when at least eight mice remained in each group. Differences between groups were considered significant when p≤0.05. Statistical significance of tumor volume and body weight was calculated using the Linear Mixed-Effects analysis in R software version 3.4.2 (using Janssen's internally developed Shiny application version 3.3), with treatment and time as fixed effects and animal as random effect. […]
The test system of data set [7] is advanced NSCLC. In words: Study 61186372EDI1001, Phase 1 first-in-human dose escalation of JNJ-61186372 as monotherapy and in combination with lazertinib. The class given is in vivo.
Source text: This study is a first-in-human, open-label, multicenter, 2-part, Phase 1 dose escalation study to evaluate the safety and PK, establish a recommended Phase 2 dose (RP2D) and recommended Phase 2 combination dose (RP2CD) regimen, and to assess the preliminary efficacy of JNJ-61186372 as a monotherapy and in combination with lazertinib in subjects who are≥18 years of age with advanced NSCLC.
Part 1 JNJ-61186372 Monotherapy and Combination Dose Escalations: A traditional 3+3 design will be utilized to determine the MTD (or the maximum administered dose [MAD] if no MTD is defined) and the RP2D regimen(s) for JNJ-61186372 monotherapy, and the RP2CD of the JNJ-61186372 and lazertinib combination, in subjects with advanced NSCLC. The total number of subjects enrolled in each dose escalation will depend on the dose level at which the MTD or MAD is reached, and whether dose cohort expansions are indicated. […]
Anti-tumor activity will be evaluated by clinical responses as per the Response Evaluation Criteria in Solid Tumors (RECIST v1.1) (Eisenhauer et al.., Eur J Cancer 2009;45(2):228-247) The investigator will evaluate sites of disease by radiological imaging, physical examination, and other procedures, as necessary, and all results will be recorded in the case report form (CRF). […]
The mark [8] stands for this setting: monotherapy, EGFR-mutated NSCLC.
Setting [9] is: Day 28, as compared to controls, 10 mg/kg.

Turning to `C=CC(=O)Nc1cc(Nc2nccc(-n3cc(CN(C)C)c(-c4ccccc4)n3)n2)c(OC)cc1N1CCOCC1` [Lazertinib, N-(5-(4-(4-((dimethylamino)methyl)-3-phenyl-1H-pyrazol-1-yl)pyrimidin-2-ylamino)-4-methoxy-2-morpholinophenyl)acrylamide], in data set [1] (20 to 320 mg once daily), the systemic exposure entry is reported as “increased dose-dependently”. In data set [1] (93 T790M+ patients), this compound gave an ORR of 69%. Also, in data set [1] (115 patients), the TEAE constipation is listed as 12%, the TEAE decreased appetite was found to be 17%, the “TEAE of grade ≥3 hyponatraemia” value is 2% and the “TEAE of grade ≥3 nausea” value amounted to 2%. In data set [1] (115 patients), the “TEAE of grade ≥3 pneumonia” value was 2%, the TEAE pruritus worked out at 19% and the TEAE rash is recorded as 14%. Further, in data set [1] (EGFR T790M+ NSCLC patients, multiple dose levels), the tolerability entry is “well tolerated”. Also, in data set [1] (20 mg QD, 2 evaluable), the “ORR, (%)” value was 100%. The “ORR, (%)” value in data set [1] (40 mg QD, 25 evaluable) came to 68%. Also, the “ORR, (%)” value in data set [1] (80 mg QD, 18 evaluable) was determined as 61%. Moreover, the “ORR, (%)” value in data set [1] (120 mg QD, 22 evaluable) is given as 77%. The “ORR, (%)” value in data set [1] (160 mg QD, 18 evaluable) is given as 61%. For the same compound, the “ORR, (%)” value in data set [1] (240 mg QD, 8 evaluable) came to 75%. Further, in data set [1] (dose-escalation cohort, 38 patients, 20 to 320 mg), the dose-limiting toxicities entry is “No dose-limiting toxicities were observed”. Moreover, the “objective response rate (ORR)” value in data set [1] (evaluable patients (n=110) at data cut-off, 20 to 320 mg once daily) was determined as 65%. Further, the DLTs result in data set [1] (monotherapy FIH dose escalation, through 320 mg) is “no DLTs were observed”. Also, in data set [1] (setting [8]), the “dose from which clinical activity was demonstrated in the targeted population” value is recorded as 240 mg. Besides, in data set [1] (patients with BM (n=12)), the “intracranial ORR” value turned out to be 50%. In data set [2] (tumor assessment after 6 weeks), the extracranial tumor reduction was 12.7%, the intracranial tumor reduction is listed as 49.3% and the overall tumor reduction is given as 25.9%. Moreover, in data set [2], the adverse events entry is listed as “without significant adverse events”. Further, the “CR (complete tumor regression)” value in data set [3] (n=10/group, mice with CR) was 1 of 10. Further, in data set [4] (n=10/group, mice with CR), the “CR (complete tumor regression)” value was 2 of 10. Besides, in data set [5], the “body weight loss compared to the control group” value was “some transient body weight loss” and the “animals euthanized due to negative clinical signs” value is “One”.

With `C=CC(=O)Nc1cc(Nc2nccc(-c3cn(C)c4ccccc34)n2)c(OC)cc1N(C)CCN(C)C` [Osimertinib, osimertinib, reference compound], the “mice found dead or euthanized due to negative clinical signs” value in data set [6] was “One”. Moreover, the “body weight loss compared to the control group” value in data set [5] was “some transient body weight loss”.

As usually defined, the TGI is the reduction of tumour growth relative to the control group. Regarding JNJ-372, the “mice found dead or euthanized due to negative clinical signs” value in data set [6] was “One”. In data set [7] (monotherapy FIH dose escalation, through 1400 mg), the DLTs result is listed as “no DLTs were observed”. Further, the “dose from which clinical activity was demonstrated in the targeted population” value in data set [7] (setting [8]) was 700 mg. Moreover, the TGI in data set [3] (setting [9]) came to 86%; in data set [4] (setting [9]), 70%. The “animals euthanized due to negative clinical signs” value in data set [5] is on record as “One”.
